Data taken from PubChem BioAssay (NCI).
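Where inhibition never reached the appropriate level, the endpoint shown equals the highest concentration tested. Otherwise, values were interpolated linearly from a five-concentration, 48-hour dose response in 96-well plates. GI50 = concentration required for 50% inhibition of growth. TGI: total growth inhibition.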

Experiments:
Test in all cases: growth of human tumour cells (NCI), 48 h
[1] = system: UO-31 renal
[2] = system: SN12C renal
[3] = system: NCI-H522 lung
[4] = system: K-562 leukemia
[5] = system: MDA-MB-435
[6] = system: MOLT-4 leukemia
[7] = system: DU-145 prostate
[8] = system: SF-539 CNS

| SMILES | GI50 [1] | TGI [1] | GI50 [2] | TGI [2] | GI50 [3] | TGI [3] | GI50 [4] | TGI [4] | GI50 [5] | TGI [5] | GI50 [6] | TGI [6] | GI50 [7] | TGI [7] | GI50 [8] | TGI [8] |
| --- | --- | --- | --- | --- | --- | --- | --- | --- | --- | --- | --- | --- | --- | --- | --- | --- |
| CCOC(CCCNCCCn1c2c(c3cc(OC)c(OC)cc3c1=O)C(=O)c1cc3c(cc1-2)OCO3)OCC | 5.82 µM | 11.9 µM | 5.04 µM | 10.8 µM | 5.34 µM | 11.3 µM | 5.53 µM | 11.5 µM | 7.32 µM | 13.9 µM |  |  |  |  |  |  |
| Cc1ncc(C(=O)Nc2ccc(CN3CCN(C)CC3)c(C(F)(F)F)c2)cc1C#Cc1cnc(N)c2cnccc12 | 0.289 µM | 1.15 µM | 0.037 µM | 11.5 µM | 0.0654 µM | 13.1 µM |  | 1.29 µM | 0.0261 µM | 4.11 µM | 0.0412 µM | 4.98 µM | 0.0636 µM | 6.91 µM | 0.193 µM | 1.29 µM |
| NC(=O)C1c2ccccc2C=Cc2ccccc21 | > 100 µM | > 100 µM | > 100 µM | > 100 µM | > 100 µM | > 100 µM | > 100 µM | > 100 µM | 73.3 µM | > 100 µM | > 100 µM | > 100 µM | > 100 µM | > 100 µM | > 100 µM | > 100 µM |
| Cc1ccc2c(c1)C(C)Cc1c(ncnc1-n1cnc3cc(C)ccc31)N2C (stereo not drawn) | 0.0729 µM | 12.3 µM | 0.086 µM | 16.3 µM | 0.026 µM | 0.0784 µM | 0.034 µM | 16.5 µM |  |  | 0.0407 µM | 13.8 µM | 0.0379 µM | 11.1 µM | 0.0218 µM | 0.0593 µM |
| COc1ccc(CCN2CCCN3C2=Nc2ccccc2S3(=O)=O)cc1 | 0.913 µM | > 100 µM | 0.707 µM | > 100 µM | 0.278 µM | 8.86 µM | 0.196 µM | > 100 µM |  |  | 0.464 µM | > 100 µM | 0.496 µM | > 100 µM | 0.272 µM | 1.04 µM |
| C[C@H]1CC[C@H]([C@@H](C)[C@H]2[C@@H](O)C[C@H]3[C@@H]4CC[C@H]5C[C@@H](O)CC[C@]5(C)[C@H]4CC[C@]23C)NC1 |  | 30.9 µM |  | 35.5 µM |  | 30.8 µM |  |  |  | 32.3 µM |  | 27.4 µM |  | 32 µM |  | 53.7 µM |
| CCC(=O)C1(c2ccccc2)CCN(C)CC1 |  | > 100 µM |  |  |  |  |  | > 100 µM |  |  |  | > 100 µM |  | > 100 µM |  |  |
| O=C(NCCc1ccccc1)C(c1ccccc1)(c1ccccc1)c1ccccc1 | 6.32 µM | 43.4 µM | 1.8 µM | 5.96 µM | 13.1 µM | 38.1 µM | 44.9 µM | > 100 µM | 12.2 µM | 45.8 µM | > 100 µM | > 100 µM | 3.38 µM | 44.2 µM |  |  |
| O=C(CSc1nc2ccccc2nc1-c1ccccc1)Nc1ccc(Cl)cc1 | 55.4 µM | > 100 µM | 22.6 µM | 99.2 µM | 15.3 µM | 74.3 µM |  |  | 29.8 µM | > 100 µM | > 100 µM | > 100 µM | 55.4 µM | > 100 µM | 16.3 µM | 36.6 µM |
